Reference: patent US20250304644A1, “PEPTIDES TRIPLE AGONISTS OF GIP, GLP-1 AND GLP-2” (BAINAN BIOTECH APS, priority 2021, published 2025)
pEC50: −log10 of the molar value. Like-named read-outs stand apart in the source and are kept apart here. *1 amine or outer side, *2 acyl side, *3 side chain or, on linkers, in order; H or OH if unused. Where a SMILES comes first, the peptide text is derived from it. Where no end group is shown, it is not given here. Side-chain parts run from the residue outwards. [ ]: non-standard residue; d: D form. The star is where a group is joined. C18 diacid = O=C(O)CCCCCCCCCCCCCCCCC(=O)*; γGlu = O=C(O)[C@H](CCC(=O)[*:2])N[*:1]; Decanoyl = CCCCCCCCCC(=O)*; AEEA = NCCOCCOCC(=O)O; Aib = CC(C)(N)C(=O)O

Experiments:
Type in all cases: cell-based
human GLP-1R = target: T1, human GLP-1R (Homo sapiens, UniProt P43220); experiment: cAMP assay (HitHunter) in transiently transfected COS-7 cells expressing human GLP-1R; details: for EC50: cAMP, COS-7 cells, human GLP-1R, read-out: EC50 (nM) GLP-1R
T1 construct: host or cells: COS-7
T1 sequence (P43220 24-463): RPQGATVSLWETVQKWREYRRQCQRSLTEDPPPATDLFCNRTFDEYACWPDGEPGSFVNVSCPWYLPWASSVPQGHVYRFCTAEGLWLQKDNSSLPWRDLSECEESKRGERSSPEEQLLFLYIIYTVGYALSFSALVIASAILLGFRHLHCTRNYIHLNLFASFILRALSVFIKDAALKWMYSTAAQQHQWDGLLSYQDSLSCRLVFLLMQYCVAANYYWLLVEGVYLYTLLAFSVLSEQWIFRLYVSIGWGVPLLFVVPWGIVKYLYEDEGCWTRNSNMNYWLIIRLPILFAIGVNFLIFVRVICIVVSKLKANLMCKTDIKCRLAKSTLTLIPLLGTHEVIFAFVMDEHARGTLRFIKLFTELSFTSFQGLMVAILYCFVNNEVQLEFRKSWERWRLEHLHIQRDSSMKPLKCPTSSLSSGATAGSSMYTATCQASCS

human GIPR = target: T2, human GIPR (Homo sapiens, UniProt P48546); experiment: cAMP assay (HitHunter) in transiently transfected COS-7 cells expressing human GIPR; details: for EC50: cAMP, COS-7 cells, human GIPR
T2 construct: host or cells: COS-7
T2 sequence (P48546 22-466): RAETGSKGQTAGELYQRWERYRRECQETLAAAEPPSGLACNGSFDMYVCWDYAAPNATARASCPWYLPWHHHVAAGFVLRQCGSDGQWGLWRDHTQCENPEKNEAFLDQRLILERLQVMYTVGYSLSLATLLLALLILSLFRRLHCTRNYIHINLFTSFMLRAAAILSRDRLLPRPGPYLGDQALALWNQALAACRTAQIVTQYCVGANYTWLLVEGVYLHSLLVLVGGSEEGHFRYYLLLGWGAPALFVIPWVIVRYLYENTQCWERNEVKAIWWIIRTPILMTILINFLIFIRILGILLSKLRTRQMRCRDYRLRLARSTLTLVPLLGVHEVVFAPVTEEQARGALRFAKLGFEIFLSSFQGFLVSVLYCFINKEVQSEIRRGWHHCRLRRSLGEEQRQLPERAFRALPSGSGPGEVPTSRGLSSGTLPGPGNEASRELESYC

human GLP-2R = target: T3, human GLP-2R (Homo sapiens, UniProt O95838); experiment: cAMP assay (HitHunter) in transiently transfected COS-7 cells expressing human GLP-2R
T3 construct: host or cells: COS-7
T3 sequence (O95838 1-553): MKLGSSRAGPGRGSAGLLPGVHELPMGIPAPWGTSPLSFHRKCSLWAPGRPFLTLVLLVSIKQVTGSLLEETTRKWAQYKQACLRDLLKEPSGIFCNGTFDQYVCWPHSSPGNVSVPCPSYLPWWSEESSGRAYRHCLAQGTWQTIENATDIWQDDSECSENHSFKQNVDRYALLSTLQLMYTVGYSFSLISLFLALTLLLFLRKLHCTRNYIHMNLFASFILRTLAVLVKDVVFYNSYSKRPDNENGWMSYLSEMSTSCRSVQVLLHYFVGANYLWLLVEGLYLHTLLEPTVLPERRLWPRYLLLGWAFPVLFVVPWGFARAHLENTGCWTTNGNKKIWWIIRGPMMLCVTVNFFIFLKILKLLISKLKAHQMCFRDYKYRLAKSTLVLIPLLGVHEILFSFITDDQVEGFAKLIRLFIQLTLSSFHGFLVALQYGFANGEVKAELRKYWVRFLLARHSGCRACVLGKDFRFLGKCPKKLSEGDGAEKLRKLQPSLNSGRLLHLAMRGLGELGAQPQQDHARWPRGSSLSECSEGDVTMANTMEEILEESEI
Procedure: The next day the assay was initiated by washing with HEPES buffered saline (HBS) and followed by an incubation step with assay buffer (HBS added 1 mM isobutyl-1-methylxanthine (IBMX)) for 30 min at 37° C. The ligands were then added and incubated for an additional 30 min at 37° C. After ligand incubation, the HitHunter® CAMP assay (Eurofins DiscoverX, Fremont, […] USA) was carried out according to the manufacturer's instructions. […] The potencies (EC50 values) were determined by nonlinear regression using GraphPad Prism 9 (San Diego, California, USA). Sigmoid curves were fitted logistically. The efficacies (Emax values) were determined by normalization to the highest concentration applied of the endogenous ligand for each receptor.

human SNAP-tagged GIPR = target: T4, human SNAP-tagged GIPR (Homo sapiens, UniProt P48546); experiment: Receptor internalization assay, HEK293A cells expressing human SNAP-tagged GIPR; details: for Relative hGIPR internalization (%): relative to hGIP 1-42 = 100
T4 construct: host or cells: HEK293A
T4 sequence (P48546 22-466): T2 sequence (P48546 22-466)

[1] = COS-7, normalized to highest concentration of the endogenous ligand, read-out: Efficacy GLP-1R (Emax)
[2] = COS-7, normalized to highest concentration of the endogenous ligand, read-out: Efficacy GIPR (Emax)
[3] = COS-7, normalized to highest concentration of the endogenous ligand, read-out: Efficacy GLP-2R (Emax)

| Emax (human GLP-1R; [1]) | EC50 (human GLP-1R) | Emax (human GIPR; [2]) | EC50 (human GIPR) | Emax (human GLP-2R; [3]) | Absolute hGIPR internalization (AUC) (human SNAP-tagged GIPR; AUC of sigmoid curves up to 1 μM, 60 minutes at 37° C.) | Molecule | pEC50 (human GLP-1R) | Emax (human GLP-1R; COS-7, read-out: Efficacy GLP-1R (Emax)) | Emax (human GIPR; COS-7, read-out: Efficacy GIPR (Emax)) | Emax (human GLP-2R; COS-7, read-out: Efficacy GLP-2R (Emax)) | Absolute hGIPR internalization (AUC) (human SNAP-tagged GIPR) | Relative hGIPR internalization (%) (human SNAP-tagged GIPR) |
| --- | --- | --- | --- | --- | --- | --- | --- | --- | --- | --- | --- | --- |
| – | – | – | – | – | – | HADGTFTSDYSTILDKK([AEEA-AEEA-γGlu-C18 diacid])AARDFINWLIQTKGKKNDWKHNITQ [Compound 23] | 10.30 | 105% | 82% | 95% | 1.2 | 3% |
| 113% | 0.05 nM | 96% | 0.398 nM | 91% | 15.0 | HADGTFTSDYSTILDKLAARDFINWLIQTKGKK([AEEA-AEEA-γGlu-C18 diacid])NDWKHNITQ-OH [Compound 24] | – | – | – | – | – | 41% |
| 96% | – | 91% | – | 92% | – | CCCCCCCCCC(=O)NCCCC[C@H](NC(=O)[C@H](CCCCN)NC(=O)CNC(=O)[C@H](CCCCN)NC(=O)[C@@H](NC(=O)[C@H](CCC(N)=O)NC(=O)[C@@H](NC(=O)[C@H](CC(C)C)NC(=O)[C@H](Cc1c[nH]c2ccccc12)NC(=O)[C@H](CC(N)=O)NC(=O)[C@@H](NC(=O)[C@H](Cc1ccccc1)NC(=O)[C@H](CC(=O)O)NC(=O)[C@H](CCCNC(=N)N)NC(=O)[C@H](C)NC(=O)[C@H](C)NC(=O)[C@H](CC(C)C)NC(=O)[C@H](CC(N)=O)NC(=O)[C@H](CC(=O)O)NC(=O)[C@H](CC(C)C)NC(=O)[C@@H](NC(=O)[C@@H](NC(=O)[C@H](CO)NC(=O)[C@H](Cc1ccc(O)cc1)NC(=O)[C@H](CC(=O)O)NC(=O)[C@H](CO)NC(=O)[C@@H](NC(=O)[C@H](Cc1ccccc1)NC(=O)[C@@H](NC(=O)CNC(=O)[C@H](CC(=O)O)NC(=O)C(C)(C)NC(=O)[C@@H](N)Cc1c[nH]cn1)[C@@H](C)O)[C@@H](C)CC)[C@@H](C)O)[C@@H](C)CC)[C@@H](C)CC)[C@@H](C)CC)[C@@H](C)O)C(N)=O [Compound 14] (H-H[Aib]DGTFISDYSTILDNLAARDFINWLIQTKGKK(Decanoyl)-NH2) | – | – | – | – | – | – |
| 94% | 1.78 nM | 80% | 0.631 nM | 101% | – | CCCCCCCCCC(=O)NCCCC[C@H](NC(=O)[C@@H](NC(=O)[C@@H](NC(=O)[C@H](CCCCN)NC(=O)[C@@H](NC(=O)[C@H](CCC(N)=O)NC(=O)[C@@H](NC(=O)[C@H](CC(C)C)NC(=O)[C@H](Cc1c[nH]c2ccccc12)NC(=O)[C@H](CC(N)=O)NC(=O)[C@@H](NC(=O)[C@H](Cc1ccccc1)NC(=O)[C@H](CC(=O)O)NC(=O)[C@H](CCCNC(=N)N)NC(=O)[C@H](C)NC(=O)[C@H](C)NC(=O)[C@H](CC(C)C)NC(=O)[C@H](CC(N)=O)NC(=O)[C@H](CC(=O)O)NC(=O)[C@H](CC(C)C)NC(=O)[C@@H](NC(=O)[C@@H](NC(=O)[C@H](C)NC(=O)[C@H](Cc1ccc(O)cc1)NC(=O)[C@H](CC(=O)O)NC(=O)[C@H](CO)NC(=O)[C@@H](NC(=O)[C@H](Cc1ccccc1)NC(=O)[C@@H](NC(=O)CNC(=O)[C@H](CC(=O)O)NC(=O)C(C)(C)NC(=O)[C@@H](N)Cc1c[nH]cn1)[C@@H](C)O)[C@@H](C)CC)[C@@H](C)O)[C@@H](C)CC)[C@@H](C)CC)[C@@H](C)CC)[C@@H](C)O)[C@@H](C)CC)[C@@H](C)O)C(=O)O [Compound 3] (H-H[Aib]DGTFISDYATILDNLAARDFINWLIQTKITK(Decanoyl)-OH; N-terminus assumed) | – | – | – | – | – | – |
